Source: patent publication US4882313A, “Carboxamide derivatives of glycopeptides” (SmithKline Beckman Corporation, priority 1987, dated 1989)

Tests used:
Staphylococcus aureus = experiment: standard microtiter assay, minimum inhibitory concentration; type: cell-based; details: for minimum inhibitory concentration of antibiotic, Test Organism 1: Test Organism 1, strain of Staphylococcus aureus; for minimum inhibitory concentration of antibiotic, Test Organism 2: Test Organism 2, strain of Staphylococcus aureus; for minimum inhibitory concentration of antibiotic, Test Organism 3: Test Organism 3, strain of Staphylococcus aureus; for minimum inhibitory concentration of antibiotic, Test Organism 4: Test Organism 4, strain of Staphylococcus aureus; for minimum inhibitory concentration of antibiotic, Test Organism 5: Test Organism 5, strain of Staphylococcus aureus
From the text: (§1) Representative results of standard microtiter assays are reported in Table 1 which follows, as the minimum inhibitory concentration of antibiotic (mg/ml). In Table 1, test organisms 1-5 were different strains of Staphylococcus aureus; 6, 8, 11, 13 and 14 were different strains of Staphylococcus epidermidis; 7 was a Staphylococcus haemolyticus; 9 and 10 were different strains of Streptococcus faecalis; and 12 was a Staphylococcus saprophyticus.

[1] = test system: Staphylococcus haemolyticus; experiment: as above; type: cell-based; details: Test Organism 7, Staphylococcus haemolyticus
From the text: as §1

[2] = test system: Staphylococcus saprophyticus; experiment: as above; type: cell-based; details: Test Organism 12, Staphylococcus saprophyticus
From the text: as §1

Streptococcus faecalis = experiment: as above; type: cell-based; details: for minimum inhibitory concentration of antibiotic, Test Organism 9: Test Organism 9, strain of Streptococcus faecalis; for minimum inhibitory concentration of antibiotic, Test Organism 10: Test Organism 10, strain of Streptococcus faecalis
From the text: as §1

[3] = test system: Staphylococcus epidermidis; experiment: as above; type: cell-based; design: minimum inhibitory concentration of antibiotic, Test Organism 8: unit not given here; details: for minimum inhibitory concentration of antibiotic, Test Organism 6: Test Organism 6, strain of Staphylococcus epidermidis; for minimum inhibitory concentration of antibiotic, Test Organism 8: Test Organism 8, strain of Staphylococcus epidermidis; for minimum inhibitory concentration of antibiotic, Test Organism 11: Test Organism 11, strain of Staphylococcus epidermidis; for minimum inhibitory concentration of antibiotic, Test Organism 13: Test Organism 13, strain of Staphylococcus epidermidis; for minimum inhibitory concentration of antibiotic, Test Organism 14: Test Organism 14, strain of Staphylococcus epidermidis
From the text: as §1

[4] = pI (analytical data, Table 2); type: physicochemical
From the text: Using substantially the procedures of both Examples 1 and 2, the compounds of Examples 3-15 were obtained by using the appropriate glycopeptide and amine starting materials.

CCCCCCCCCC(=O)NC1C(Oc2c3cc4cc2Oc2c(Cl)cc(cc2Cl)C(O)C2NC(=O)C(NC(=O)C4NC(=O)C4NC(=O)C(NC(=O)C(NC)c5ccc(O)c(c5)Oc5cc(O)c(Cl)c4c5)C(O)c4ccc(c(Cl)c4)O3)c3ccc(O)c(c3)-c3c(OC4OC(CO)C(O)C(O)C4O)cc(O)cc3C(C(N)=O)NC2=O)OC(C(N)=O)C(O)C1O (stereo not shown) [Compound 2j, Ardacin A diamide]
minimum inhibitory concentration of antibiotic, Test Organism 1 (Staphylococcus aureus): 800 µg/mL
minimum inhibitory concentration of antibiotic, Test Organism 2 (Staphylococcus aureus): 1600 µg/mL
minimum inhibitory concentration of antibiotic, Test Organism 3 (Staphylococcus aureus): 800 µg/mL
minimum inhibitory concentration of antibiotic, Test Organism 4 (Staphylococcus aureus): 3100 µg/mL
minimum inhibitory concentration of antibiotic, Test Organism 5 (Staphylococcus aureus): 1600 µg/mL
minimum inhibitory concentration of antibiotic, Test Organism 7 [1]: 3100 µg/mL
minimum inhibitory concentration of antibiotic, Test Organism 12 [2]: 3100 µg/mL
minimum inhibitory concentration of antibiotic, Test Organism 9 (Streptococcus faecalis): 200 µg/mL
minimum inhibitory concentration of antibiotic, Test Organism 10 (Streptococcus faecalis): 100 µg/mL
minimum inhibitory concentration of antibiotic, Test Organism 6 [3]: 6300 µg/mL
minimum inhibitory concentration of antibiotic, Test Organism 8 [3]: 6.3
minimum inhibitory concentration of antibiotic, Test Organism 11 [3]: 6300 µg/mL
minimum inhibitory concentration of antibiotic, Test Organism 13 [3]: 3100 µg/mL
minimum inhibitory concentration of antibiotic, Test Organism 14 [3]: 800 µg/mL
pI [4]: 7.2

CCCCCCCCCC(=O)NC1C(Oc2c3cc4cc2Oc2c(Cl)cc(cc2Cl)C(O)C2NC(=O)C(NC(=O)C4NC(=O)C4NC(=O)C(NC(=O)C(NC)c5ccc(O)c(c5)Oc5cc(O)c(Cl)c4c5)C(O)c4ccc(c(Cl)c4)O3)c3ccc(O)c(c3)-c3c(OC4OC(CO)C(O)C(O)C4O)cc(O)cc3C(C(=O)NN)NC2=O)OC(C(=O)NN)C(O)C1O (stereo not shown) [Compound 2k, Ardacin A dihydrazide]
minimum inhibitory concentration of antibiotic, Test Organism 1 (Staphylococcus aureus): 3100 µg/mL
minimum inhibitory concentration of antibiotic, Test Organism 2 (Staphylococcus aureus): 3100 µg/mL
minimum inhibitory concentration of antibiotic, Test Organism 3 (Staphylococcus aureus): 1600 µg/mL
minimum inhibitory concentration of antibiotic, Test Organism 4 (Staphylococcus aureus): 6300 µg/mL
minimum inhibitory concentration of antibiotic, Test Organism 5 (Staphylococcus aureus): 3100 µg/mL
minimum inhibitory concentration of antibiotic, Test Organism 7 [1]: 12500 µg/mL
minimum inhibitory concentration of antibiotic, Test Organism 12 [2]: 6300 µg/mL
minimum inhibitory concentration of antibiotic, Test Organism 9 (Streptococcus faecalis): 400 µg/mL
minimum inhibitory concentration of antibiotic, Test Organism 10 (Streptococcus faecalis): 100 µg/mL
minimum inhibitory concentration of antibiotic, Test Organism 6 [3]: 12500 µg/mL
minimum inhibitory concentration of antibiotic, Test Organism 8 [3]: 12.5
minimum inhibitory concentration of antibiotic, Test Organism 11 [3]: 12500 µg/mL
minimum inhibitory concentration of antibiotic, Test Organism 13 [3]: 3100 µg/mL
minimum inhibitory concentration of antibiotic, Test Organism 14 [3]: 3100 µg/mL
pI [4]: 7.0

CCCCCCCCCC(=O)NC1C(Oc2c3cc4cc2Oc2c(Cl)cc(cc2Cl)C(O)C2NC(=O)C(NC(=O)C4NC(=O)C4NC(=O)C(NC(=O)C(NC)c5ccc(O)c(c5)Oc5cc(O)c(Cl)c4c5)C(O)c4ccc(c(Cl)c4)O3)c3ccc(O)c(c3)-c3c(OC4OC(CO)C(O)C(O)C4O)cc(O)cc3C(C(=O)NCCO)NC2=O)OC(C(=O)NCCO)C(O)C1O (stereo not shown) [Compound 2l, Ardacin A-di-(2-hydroxyethyl amide)]
minimum inhibitory concentration of antibiotic, Test Organism 1 (Staphylococcus aureus): 200 µg/mL
minimum inhibitory concentration of antibiotic, Test Organism 2 (Staphylococcus aureus): 200 µg/mL
minimum inhibitory concentration of antibiotic, Test Organism 3 (Staphylococcus aureus): 200 µg/mL
minimum inhibitory concentration of antibiotic, Test Organism 4 (Staphylococcus aureus): 400 µg/mL
minimum inhibitory concentration of antibiotic, Test Organism 5 (Staphylococcus aureus): 400 µg/mL
minimum inhibitory concentration of antibiotic, Test Organism 7 [1]: 800 µg/mL
minimum inhibitory concentration of antibiotic, Test Organism 12 [2]: 800 µg/mL
minimum inhibitory concentration of antibiotic, Test Organism 9 (Streptococcus faecalis): 100 µg/mL
minimum inhibitory concentration of antibiotic, Test Organism 10 (Streptococcus faecalis): 100 µg/mL
minimum inhibitory concentration of antibiotic, Test Organism 6 [3]: 1600 µg/mL
minimum inhibitory concentration of antibiotic, Test Organism 8 [3]: 0.4
minimum inhibitory concentration of antibiotic, Test Organism 11 [3]: 800 µg/mL
minimum inhibitory concentration of antibiotic, Test Organism 13 [3]: 200 µg/mL
pI [4]: 7.3

CCCCCCCCCC(=O)NC1C(Oc2c3cc4cc2Oc2c(Cl)cc(cc2Cl)C(O)C2NC(=O)C(NC(=O)C4NC(=O)C4NC(=O)C(NC(=O)C(NC)c5ccc(O)c(c5)Oc5cc(O)c(Cl)c4c5)C(O)c4ccc(c(Cl)c4)O3)c3ccc(O)c(c3)-c3c(OC4OC(CO)C(O)C(O)C4O)cc(O)cc3C(C(=O)NCCN)NC2=O)OC(C(=O)NCCN)C(O)C1O (stereo not shown) [Compound 2m, Ardacin A-di-(2-aminoethylamide)]
minimum inhibitory concentration of antibiotic, Test Organism 1 (Staphylococcus aureus): 100 µg/mL
minimum inhibitory concentration of antibiotic, Test Organism 2 (Staphylococcus aureus): 100 µg/mL
minimum inhibitory concentration of antibiotic, Test Organism 3 (Staphylococcus aureus): 100 µg/mL
minimum inhibitory concentration of antibiotic, Test Organism 4 (Staphylococcus aureus): 800 µg/mL
minimum inhibitory concentration of antibiotic, Test Organism 5 (Staphylococcus aureus): 400 µg/mL
minimum inhibitory concentration of antibiotic, Test Organism 7 [1]: 800 µg/mL
minimum inhibitory concentration of antibiotic, Test Organism 12 [2]: 400 µg/mL
minimum inhibitory concentration of antibiotic, Test Organism 9 (Streptococcus faecalis): 100 µg/mL
minimum inhibitory concentration of antibiotic, Test Organism 10 (Streptococcus faecalis): 100 µg/mL
minimum inhibitory concentration of antibiotic, Test Organism 6 [3]: 1600 µg/mL
minimum inhibitory concentration of antibiotic, Test Organism 8 [3]: 0.1
minimum inhibitory concentration of antibiotic, Test Organism 11 [3]: 800 µg/mL
minimum inhibitory concentration of antibiotic, Test Organism 13 [3]: 200 µg/mL
pI [4]: 8.4

CNC1C(=O)NC2C(=O)NC(C(=O)NC3C(=O)NC4C(=O)NC(C(=O)NC(C(N)=O)c5cc(O)cc(OC6OC(CO)C(O)C(O)C6O)c5-c5cc4ccc5O)C(O)c4cc(Cl)c(c(Cl)c4)Oc4cc3cc(c4O)Oc3ccc(cc3Cl)C2O)c2cc(cc(O)c2Cl)Oc2cc1ccc2O (stereo not shown) [Compound 2n, Ardacin mannosylaglycone amide]
minimum inhibitory concentration of antibiotic, Test Organism 1 (Staphylococcus aureus): 200 µg/mL
minimum inhibitory concentration of antibiotic, Test Organism 2 (Staphylococcus aureus): 800 µg/mL
minimum inhibitory concentration of antibiotic, Test Organism 3 (Staphylococcus aureus): 100 µg/mL
minimum inhibitory concentration of antibiotic, Test Organism 4 (Staphylococcus aureus): 3100 µg/mL
minimum inhibitory concentration of antibiotic, Test Organism 5 (Staphylococcus aureus): 400 µg/mL
minimum inhibitory concentration of antibiotic, Test Organism 7 [1]: 1600 µg/mL
minimum inhibitory concentration of antibiotic, Test Organism 12 [2]: 1600 µg/mL
minimum inhibitory concentration of antibiotic, Test Organism 9 (Streptococcus faecalis): 200 µg/mL
minimum inhibitory concentration of antibiotic, Test Organism 6 [3]: 1600 µg/mL
minimum inhibitory concentration of antibiotic, Test Organism 11 [3]: 6300 µg/mL
minimum inhibitory concentration of antibiotic, Test Organism 13 [3]: 1600 µg/mL
minimum inhibitory concentration of antibiotic, Test Organism 14 [3]: 1600 µg/mL
pI [4]: 7.1

CNC1C(=O)NC2C(=O)NC(C(=O)NC3C(=O)NC4C(=O)NC(C(=O)NC(C(=O)NCCN)c5cc(O)cc(OC6OC(CO)C(O)C(O)C6O)c5-c5cc4ccc5O)C(O)c4cc(Cl)c(c(Cl)c4)Oc4cc3cc(c4O)Oc3ccc(cc3Cl)C2O)c2cc(cc(O)c2Cl)Oc2cc1ccc2O (stereo not shown) [Compound 2o, Ardacin mannosylaglycone-(2-aminoethyl amide)]
minimum inhibitory concentration of antibiotic, Test Organism 1 (Staphylococcus aureus): 400 µg/mL
minimum inhibitory concentration of antibiotic, Test Organism 2 (Staphylococcus aureus): 400 µg/mL
minimum inhibitory concentration of antibiotic, Test Organism 3 (Staphylococcus aureus): 400 µg/mL
minimum inhibitory concentration of antibiotic, Test Organism 4 (Staphylococcus aureus): 400 µg/mL
minimum inhibitory concentration of antibiotic, Test Organism 5 (Staphylococcus aureus): 400 µg/mL
minimum inhibitory concentration of antibiotic, Test Organism 7 [1]: 1600 µg/mL
minimum inhibitory concentration of antibiotic, Test Organism 12 [2]: 400 µg/mL
minimum inhibitory concentration of antibiotic, Test Organism 9 (Streptococcus faecalis): 200 µg/mL
minimum inhibitory concentration of antibiotic, Test Organism 10 (Streptococcus faecalis): 200 µg/mL
minimum inhibitory concentration of antibiotic, Test Organism 6 [3]: 400 µg/mL
minimum inhibitory concentration of antibiotic, Test Organism 8 [3]: 0.8
minimum inhibitory concentration of antibiotic, Test Organism 11 [3]: 800 µg/mL
minimum inhibitory concentration of antibiotic, Test Organism 13 [3]: 100 µg/mL
pI [4]: 7.8
